Measured values: publication PMC3094704, “S-Petasin, the Main Sesquiterpene of Petasites formosanus, Inhibits Phosphodiesterase Activity and Suppresses Ovalbumin-Induced Airway Hyperresponsiveness” (Evidence-based Complementary and Alternative Medicine : eCAM, 2011)

Experiments:
[1] = tested on: PDE1; experiment: Inhibition of PDE1 activity (two-step radioenzymatic assay); format: biochemical, guinea pig; details: mean ± SEM (n); read-out: IC50 on PDE isozyme 1
Experimental: Activities of PDE1–5, partially separated from guinea pig lungs and hearts according to the method described by Ko et al., were measured with a two-step procedure according to the method of Thompson and Appleman, using cAMP with [^3H]-cAMP or cGMP with [^3H]-cGMP as substrates. The enzyme pμreparation (25 μL) was incubated for 30 min at 37°C in a total assay volume of […] containing 50 mM Tris-HCl (pH 7.4), 3 mM MgCl2, 1 mM dithiothreitol, 0.05% BSA, 1 μM cAMP with 0.2 μCi [^3H]-cAMP as a substrate alone or in the presence of 0.1 units calmodulin with 10 μM CaCl2 or 5 μM cGMP, and 1 μM cGMP with 0.2 μCi [^3H]-cGMP as another substrate alone or in the presence of 0.1 units calmodulin with 10 μM CaCl2. In tests of enzyme inhibition, the reaction mixture contained 10 μL of vehicle or inhibitors, at various concentrations of S-petasin or selective PDE1–5 inhibitors, such as vinpocetin [22], EHNA [23], milrinone, Ro 20-1724 [25] and zaprinast, as reference drugs. The reagents and homogenate were mixed on ice, and the reaction was initiated by transferring the mixture to a water bath at 37°C. Following a 30-min incubation, the reaction was stopped by transferring the reaction vessel to a bath of boiling water for 3 min. After cooling on ice, 20 μL of a 1 mg/mL solution of C. atrox snake venom was added to the reaction mixture, and the mixture was incubated at 37°C for 10 min. […]

[2] = target: PDE3; experiment: Inhibition of PDE3 activity and Lineweaver-Burk analysis; format: biochemical, guinea pig
Experimental: Activities of PDE1–5, partially separated from guinea pig lungs and hearts according to the method described by Ko et al., were measured with a two-step procedure according to the method of Thompson and Appleman, using cAMP with [^3H]-cAMP or cGMP with [^3H]-cGMP as substrates. The enzyme pμreparation (25 μL) was incubated for 30 min at 37°C in a total assay volume of […] containing 50 mM Tris-HCl (pH 7.4), 3 mM MgCl2, 1 mM dithiothreitol, 0.05% BSA, 1 μM cAMP with 0.2 μCi [^3H]-cAMP as a substrate alone or in the presence of 0.1 units calmodulin with 10 μM CaCl2 or 5 μM cGMP, and 1 μM cGMP with 0.2 μCi [^3H]-cGMP as another substrate alone or in the presence of 0.1 units calmodulin with 10 μM CaCl2. […] The reagents and homogenate were mixed on ice, and the reaction was initiated by transferring the mixture to a water bath at 37°C. Following a 30-min incubation, the reaction was stopped by transferring the reaction vessel to a bath of boiling water for 3 min. After cooling on ice, 20 μL of a 1 mg/mL solution of C. atrox snake venom was added to the reaction mixture, and the mixture was incubated at 37°C for 10 min. Unreacted [^3H]-cAMP or [^3H]-cGMP was removed by the addition of 500 μL of a 1-in-1 Tris-HCl (40 mM) buffer suspension of Dowex resin (1 × 8-200) with incubation on ice for 30 min. Each tube was then centrifuged for 2 min at 3700 g, and 150 μL of the supernatant was removed for liquid scintillation counting. […] The total protein in each fraction used was assayed according to the method described by Bradford. The PDE activities are shown as nmol/mg/min in the Lineweaver-Burk analysis.

[3] = target: PDE4; experiment: Inhibition of PDE4 activity and Lineweaver-Burk analysis; format: biochemical, guinea pig
Experimental: Activities of PDE1–5, partially separated from guinea pig lungs and hearts according to the method described by Ko et al., were measured with a two-step procedure according to the method of Thompson and Appleman, using cAMP with [^3H]-cAMP or cGMP with [^3H]-cGMP as substrates. The enzyme pμreparation (25 μL) was incubated for 30 min at 37°C in a total assay volume of […] containing 50 mM Tris-HCl (pH 7.4), 3 mM MgCl2, 1 mM dithiothreitol, 0.05% BSA, 1 μM cAMP with 0.2 μCi [^3H]-cAMP as a substrate alone or in the presence of 0.1 units calmodulin with 10 μM CaCl2 or 5 μM cGMP, and 1 μM cGMP with 0.2 μCi [^3H]-cGMP as another substrate alone or in the presence of 0.1 units calmodulin with 10 μM CaCl2. In tests of enzyme inhibition, the reaction mixture contained 10 μL of vehicle or inhibitors, at various concentrations of S-petasin or selective PDE1–5 inhibitors, such as vinpocetin [22], EHNA [23], milrinone, Ro 20-1724 [25] and zaprinast, as reference drugs. The reagents and homogenate were mixed on ice, and the reaction was initiated by transferring the mixture to a water bath at 37°C. Following a 30-min incubation, the reaction was stopped by transferring the reaction vessel to a bath of boiling water for 3 min. After cooling on ice, 20 μL of a 1 mg/mL solution of C. atrox snake venom was added to the reaction mixture, and the mixture was incubated at 37°C for 10 min. Unreacted [^3H]-cAMP or [^3H]-cGMP was removed by the addition of 500 μL of a 1-in-1 Tris-HCl (40 mM) buffer suspension of Dowex resin (1 × 8-200) with incubation on ice for 30 min. Each tube was then centrifuged for 2 min at 3700 g, and 150 μL of the supernatant was removed for liquid scintillation counting. Less than 10% of the tritiated cyclic nucleotide was hydrolyzed in this assay. The total protein in each fraction used was assayed according to the method described by Bradford. The PDE activities are shown as nmol/mg/min in the Lineweaver-Burk analysis.

[4] = tested on: high-affinity rolipram binding sites (HARBSs) of guinea pig brain cell membranes; experiment: Displacement of [3H]-rolipram (PDE4H determination)
Experimental: When the above-described guinea pigs were sacrificed, the whole brains were removed and homogenized with a glass/Teflon homogenizer (Glas-Col, Terre Haute, IN, USA) in 10 volumes of cold medium (pH 6.5) containing 20 mM Bis-Tris, 2 mM benzamidine, 2 mM EDTA, 50 mM sodium chloride, 0.1 mM PMSF and 1 mM dithiothreitol. At 4°C, the homogenate was centrifuged at 170 g for 5 min to remove connective tissues and blood vessels. The suspended homogenate was then re-centrifuged at 40 000 g for 30 min to separate the cytosolic and particulate portions. The particulate portion was re-suspended in a suspension at a concentration of 400 mg/mL (wet weight/volume), after washing three times with homogenizing buffer. The particulate portion mainly consisted of cell membranes. The binding ability of S-petasin (3–300 μM) or Ro 20-1724 (1–10,000 nM), a reference drug, to high-affinity rolipram binding sites (HARBSs) of the membranes was determined by replacing 2 nM [^3H]-rolipram in a reaction buffer at 30°C for 1 h, according to the method described by previous investigators and modified by us. Briefly, the reaction buffer consisted of 50 mM Tris-HCl and 5 mM MgCl2 (pH 7.5). The total volume of the reaction mixture was 25 μL, consisting of 10 μL of particulate suspension, 10 μL of [^3H]-rolipram and 5 μL of S-petasin or Ro 20-1724. After 1 h, the reaction was terminated by moving the reaction vessel into crushed ice. Then the reaction mixture was transferred onto Whatman GF/B glass-fiber filters, which were soaked in a 0.3% polyethyleneimine solution in a mini-funnel. The reaction mixture was filtered by centrifuging at 90 g for 10 s, and the filtrate was collected into a 1.5 mL Eppendorf tube with a top adapted to the outlet of the mini-funnel. The filters were washed with 300 μL of reaction buffer three times each in the same way, and transferred into 2 mL of cocktail for radiation counting (total binding) using a β-scintillation counter (Beckman, Fullerton, CA, USA). Non-specific binding, which was defined in the presence of 10 μM Ro 20-1724, was subtracted from the total binding to yield the specific binding. The effective concentration (EC50) values of S-petasin and Ro 20-1724, at which a half of [^3H]-rolipram bound onto HARBSs of cell membranes was displaced, were defined as the PDE4H values, and these were related to any adverse effects, such as nausea, vomiting and gastric hypersecretion.

## C=C(C)[C@@H]1C[C@@]2(C)C(=CC1=O)CC[C@@H](OC(=O)/C=C\SC)[C@@H]2C [S-Petasin]
[1]
  IC50: > 100 µM
[2]; Lineweaver-Burk analysis, cAMP substrate, read-out: Ki on PDE isozyme 3
  Ki: 25.3 ± 2 µM
[2]; Lineweaver-Burk analysis, S-petasin 3–30 μM, milrinone 0.3–3 μM
  Mode of inhibition of PDE3 activity: competitively inhibited
[2]; mean ± SEM (n), read-out: IC50 on PDE isozyme 3
  IC50: 25.5 ± 1.5 µM
[3]; Lineweaver-Burk analysis, cAMP substrate, read-out: Ki on PDE isozyme 4
  Ki: 18.1 ± 1.7 µM
[3]; Lineweaver-Burk analysis, S-petasin 3–30 μM, Ro 20-1724 1–10 μM
  Mode of inhibition of PDE4 activity: competitively inhibited
[3]; mean ± SEM (n), read-out: IC50 on PDE isozyme 4 (taken as PDE4L value)
  IC50: 17.5 µM
[4]; HARBSs of guinea pig brain cell membranes
  EC50: > 300 µM
[4]; at the highest concentration (300 μM), 2 nM [3H]-rolipram
  percentage displacement of [3H]-rolipram binding: 28.0%±5.7%
